Legend:
maize split-seed explant = assay: direct multiple shoot formation on split-seed explant shoot induction medium; format: cell-based; conditions: BAP alone
Experimental: Another embodiment of the present invention provides a “split-seed explant shoot induction medium.” When a split-seed explant is exposed to a “split-seed explant shoot induction medium” and incubated under a 16-h soft white light at 27° C., the split-seed explant generates at least one shoot. A “split-seed explant shoot induction medium” comprises MS basal salts and B5 vitamins supplemented with a cytokinin or mixtures of cytokinins. A preferred cytokinin is BAP. The concentration of a cytokinin may range from 1.0 mg/l to 6.0 mg/l. Preferably the concentration of a cytokinin ranges from 1.0 mg/l to 5.0 mg/l and more preferably ranges from 1.5 mg/l to 4.5 mg/l. In a preferred embodiment, a cytokinin is BAP and is at a concentration of 3.0 mg/l to 4.0 mg/l. In a preferred embodiment, BAP is preferably at a concentration of 4.0 mg/l. A “split-seed explant shoot induction medium” further comprises glycine at a preferable concentration of 1.0 mg/l, casein hydrolysate at a preferable concentration of 400 mg/l, and sucrose at a preferable concentration of 30 g/l. A “split-seed explant shoot induction medium” may be solidified with 8.0 g/l agar. The pH of the medium is adjusted to 5.8 prior to adding the agar and the medium is autoclaved at 121° C. for 20 minutes.
In another embodiment, a “split-seed explant shoot induction medium” further comprises 6-furfurylaminopurine (“kinetin”). […]

[1] = system: embryogenic callus from maize split-seed explant; assay: shoot regeneration from embryogenic callus on callus/somatic embryo shoot induction medium; format: cell-based; conditions: maximum period of two months
Experimental: Embryogenic calli/somatic embryos are transferred to a “callus/somatic embryo shoot induction medium” (which is an embodiment of the present and is described below) and allowed to develop shoots. The cultures are maintained at 27° C. under 16-hour soft white light. Shoot regeneration frequency is determined by calculating the number of embryogenic calli producing shoots and the number of shoots per callus.
A “callus/somatic embryo shoot induction medium” comprises MS basal salts and B5 vitamins supplemented with a cytokinin, or mixtures of cytokinins. A preferred cytokinin is BAP. The concentration of a cytokinin preferably ranges from 0.1 mg/l to 2.0 mg/l. Preferably the concentration of a cytokinin ranges from […] and most preferably ranges from 0.75 mg/l to 1.0 mg/l. In a preferred embodiment, a cytokinin is BAP is preferably at a concentration of 1.0 mg/l.
White and soft callus formed on the surface of split-seed explants is removed after one week for further growth on “primary calli maintenance medium” (FIG. 3B). Callus initiation from the split-seed is observed in four day old cultures. After one month in culture, highly proliferated calli (FIG. 3C) are transferred to an “embryogenic callus induction medium” containing 2,4-D at 0.1 mg/l and BAP at 0.5 mg/l to maintain embryogenic callus (FIG. 3D). The callus is sub-cultured every two weeks. […]

Compound: c1ccc(CNc2ncnc3nc[nH]c23)cc1 [BAP, 6-benzylamino purine]
- multiple shoot induction (maize split-seed explant): induces multiple shoots
- BAP concentration giving the highest number of shoots [1]: 1.0 mg/L
